Laboratory results: patent US8700113B2, “Sensor for detection of carbohydrate” (Medtronic Minimed, Inc., priority 2004, dated 2014)

Assays:
MBL [1] = biological target: T1, MBL (Homo sapiens, UniProt P11226); test: Affinity of common carbohydrate moieties for MBL; assay type: binding; details: for affinity for MBL, rank order of common carbohydrate moieties: value = moieties ranked next below (>) or above (<)
[2] = Comparison of stability of MBL and Con A in glucose assay
Protocol: Example 5 was repeated using MBL-AF594 and ConA-AF594 as lectin with 110 kDa HMCV1-dextran as analyte analogue in physiological TRIS buffer (pH 7.4, sodium, potassium and calcium present in physiological concentrations). […] Measurements were taken at 5 minute intervals using a miniaturized time resolved fluorimeter.

MBL [3] = biological target: T1, MBL; details: cited from earlier work

T1 sequence (P11226 21-248, species assumed): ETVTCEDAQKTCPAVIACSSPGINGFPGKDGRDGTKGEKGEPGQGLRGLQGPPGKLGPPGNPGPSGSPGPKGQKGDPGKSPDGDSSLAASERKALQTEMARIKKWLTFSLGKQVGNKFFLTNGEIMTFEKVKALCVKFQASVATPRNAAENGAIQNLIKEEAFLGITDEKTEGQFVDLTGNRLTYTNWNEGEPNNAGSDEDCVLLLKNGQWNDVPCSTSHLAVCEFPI

Which “affinity / binding to MBL in words” value (MBL [1]) does the source give for `O=C[C@@H](O)[C@@H](O)[C@H](O)[C@H](O)CO` [D-Mannose] here?
The value was “high affinity”.

And the “affinity for MBL, rank order of common carbohydrate moieties” value (from here on “affinity for MBL, rank order”) (MBL [1])?
The value was “> myo-inositol, D-glucose, D-arabinose, D-palatinose, D-turanose, D-sorbitol, D-ribose, D-tagatose”.

For `O=C[C@@H](O)[C@H](O)[C@H](O)CO` [D-arabinose], which “affinity for MBL, rank order” value (MBL [1]) is on record?
Its value is “> D-lyxose”.

For `O=C(CO)[C@@H](O)[C@H](O)[C@H](O)CO` [D-fructose], which “affinity for MBL, rank order” value (MBL [1]) is on record?
The value was “> myo-inositol, D-glucose, D-arabinose, D-palatinose, D-turanose, D-sorbitol, D-ribose, D-tagatose”.

What does the source list for `O=C[C@H](O)[C@@H](O)[C@@H](O)[C@H](O)CO` [D-galactose]?
affinity / binding to MBL in words (MBL [1]): very low affinity; affinity for MBL, rank order of common carbohydrate moieties (MBL [1]): D-lyxose

Which results are given for `O=C[C@H](O)[C@@H](O)[C@H](O)[C@H](O)CO` [D-glucose]?
affinity / binding to MBL in words (MBL [1]): high affinity; affinity for MBL, rank order of common carbohydrate moieties (MBL [1]): > D-lyxose

Which “affinity for MBL, rank order” value (MBL [1]) does the source give for `OC[C@H]1O[C@H](O[C@@H]2CO[C@](O)(CO)[C@@H](O)[C@@H]2O)[C@H](O)[C@@H](O)[C@@H]1O` [D-leucrose] here?
Its value is “> myo-inositol, D-glucose, D-arabinose, D-palatinose, D-turanose, D-sorbitol, D-ribose, D-tagatose”.

For `O=C[C@@H](O)[C@@H](O)[C@H](O)CO` [D-lyxose], which “affinity for MBL, rank order” value (MBL [1]) is on record?
Its value is “> lactose, L-arabinose, D-galactose”.

With `OC[C@H]1O[C@H](OC[C@H]2OC(O)(CO)[C@@H](O)[C@@H]2O)[C@H](O)[C@@H](O)[C@@H]1O` (stereo partly drawn) [D-palatinose] as the molecule, how does the “affinity for MBL, rank order” value (MBL [1]) read?
Its value is “> D-lyxose”.

With `O=C[C@H](O)[C@H](O)[C@H](O)CO` [D-ribose] as the molecule, how does the “affinity for MBL, rank order” value (MBL [1]) read?
Its value is “> D-lyxose”.

Which “affinity for MBL, rank order” value (MBL [1]) does the source give for `OC[C@@H](O)[C@@H](O)[C@H](O)[C@@H](O)CO` [D-sorbitol] here?
Its value is “> D-lyxose”.

With `O=C(CO)[C@@H](O)[C@@H](O)[C@H](O)CO` [D-tagatose] as the molecule, how does the “affinity for MBL, rank order” value (MBL [1]) read?
Its value is “> D-lyxose”.

Which “affinity for MBL, rank order” value (MBL [1]) does the source give for `C[C@H](O)[C@@H](O)[C@@H](O)[C@H](O)C=O` [L-Fucose] here?
Its value is “> myo-inositol, D-glucose, D-arabinose, D-palatinose, D-turanose, D-sorbitol, D-ribose, D-tagatose”.

Which “affinity for MBL, rank order” value (MBL [1]) does the source give for `O=C[C@H](O)[C@@H](O)[C@@H](O)CO` [L-arabinose] here?
The value was “D-lyxose”.

For `CC(=O)N[C@H]1C(O)O[C@H](CO)[C@@H](O)[C@@H]1O` (stereo partly drawn) [N-acetyl-D-glucosamine], which “affinity / binding to MBL in words” value (MBL [1]) is on record?
Its value is “high affinity”.

And the “affinity for MBL, rank order” value (MBL [1])?
The value was “> myo-inositol, D-glucose, D-arabinose, D-palatinose, D-turanose, D-sorbitol, D-ribose, D-tagatose”.

For `CC(=O)N[C@@H]1C(O)O[C@H](CO)[C@@H](O)[C@@H]1O` (stereo partly drawn) [N-acetyl-D-mannosamine], which “affinity for MBL, rank order” value (MBL [1]) is on record?
The value was “> myo-inositol, D-glucose, D-arabinose, D-palatinose, D-turanose, D-sorbitol, D-ribose, D-tagatose”.

For `OC[C@H]1O[C@@](CO)(O[C@H]2O[C@H](CO)[C@@H](O[C@H]3O[C@H](CO)[C@@H](O)[C@H](O)[C@H]3O)[C@H](O)[C@H]2O)[C@@H](O)[C@@H]1O` [erlose], which “affinity for MBL, rank order” value (MBL [1]) is on record?
The value was “> myo-inositol, D-glucose, D-arabinose, D-palatinose, D-turanose, D-sorbitol, D-ribose, D-tagatose”.

For `OC[C@H]1O[C@@H](O[C@H]2[C@H](O)[C@@H](O)C(O)O[C@@H]2CO)[C@H](O)[C@@H](O)[C@H]1O` (stereo partly shown) [lactose], which “affinity for MBL, rank order” value (MBL [1]) is on record?
The value was “D-lyxose”.

Which “affinity for MBL, rank order” value (MBL [1]) does the source give for `O[C@H]1[C@H](O)[C@@H](O)[C@H](O)[C@@H](O)[C@H]1O` [myo-inositol] here?
The value was “> D-lyxose”.

What does the source list for Concanavalin A?
reduction in the measured phase ([2]; after 20 days, 110 kDa HMCV1-dextran, physiological TRIS buffer pH 7.4): more than 10%; time stable at body temperature ([2]; assay conditions, body temperature): less than 20 days

For D-turanose, which “affinity for MBL, rank order” value (MBL [1]) is on record?
The value was “> D-lyxose”.

For “MBL-AF594: human MBL stained with Alexa Fluor 594 succinimidyl ester, 2.3 dyes per subunit”, which “phase measurements at each glucose level over time” value ([2]; 110 kDa HMCV1-dextran, physiological TRIS buffer pH 7.4, glucose cycles 2.5-50 mM) is on record?
Its value is “constant over time”.

Which “time stable in a glucose assay” value ([2]; glucose assay) does the source give for “MBL: collagen-like C-type collectin, human MBL” here?
The value was “at least 17 days”.

With “SFGSGFGGGY [keratin peptide, peptide which mimics N-acetyl glucosamine]” as the molecule, how does the “inhibition of MBL” value (MBL [3]) read?
Its value is “can inhibit MBL”.
